EP4603105A1, “PHARMACEUTICAL COMPOSITION CONTAINING CYCLIC COMPOUND HAVING SELECTIVE KRAS INHIBITORY EFFECT AGAINST HRAS AND NRAS” (CHUGAI SEIYAKU KABUSHIKI KAISHA, priority 2022, dated 2024)

Key:
HRAS wild-type protein = HRAS wild-type protein (Homo sapiens, UniProt P01112); experiment: Binding to HRAS by surface plasmon resonance (SPR), KD and KD ratio to KRAS; conditions: ratio of KD for HRAS wild-type protein to KD for KRAS
Outline: (§1)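 Single-cycle kinetics on GDP-loaded biotin-Avi RAS captured to ~100–300 RU; 75 s ascending injections, 100 µL/min, 30°C. HBS pH 7.4 + 10 mM MgCl2/10 µM GDP/4% DMSO. 1:1 fit, KD.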

[1] = molecular target: GDP-bound KRAS wild-type protein (Homo sapiens, UniProt P01116); experiment: Binding to KRAS by surface plasmon resonance (SPR), dissociation constant KD; conditions: 1:1 binding model
Sequence of GDP-bound KRAS wild-type protein (P01116 1-188 isoform P01116-2): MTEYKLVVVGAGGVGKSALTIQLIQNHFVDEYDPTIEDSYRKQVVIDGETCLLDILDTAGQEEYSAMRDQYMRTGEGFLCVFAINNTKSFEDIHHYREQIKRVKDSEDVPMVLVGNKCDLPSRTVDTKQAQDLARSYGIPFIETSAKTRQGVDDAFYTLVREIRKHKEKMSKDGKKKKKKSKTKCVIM
Outline: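 Running buffer contained 10 µM GDP and 10 mM MgCl2 to keep RAS in the GDP state, with 4% DMSO at pH 7.4. Compounds were flowed at 100 µL/min in 75 s steps of rising concentration over captured biotin-Avi RAS at 30°C. Sensorgrams were fitted 1:1 for KD.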

[2] = molecular target: GDP-bound NRAS wild-type protein (Homo sapiens, UniProt P01111); experiment: Binding to NRAS by surface plasmon resonance (SPR), KD and KD ratio to KRAS; conditions: ratio of KD for GDP-bound NRAS wild-type protein to KD for KRAS
Sequence of GDP-bound NRAS wild-type protein (P01111 whole entry): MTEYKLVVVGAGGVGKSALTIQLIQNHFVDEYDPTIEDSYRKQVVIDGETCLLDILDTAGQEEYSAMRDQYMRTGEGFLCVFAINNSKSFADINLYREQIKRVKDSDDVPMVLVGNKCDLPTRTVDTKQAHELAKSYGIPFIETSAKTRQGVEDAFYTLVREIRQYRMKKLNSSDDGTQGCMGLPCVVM
Outline: as §1

[3] = test system: human lung cancer strain NCI-H441; experiment: NCI-H441 cell proliferation inhibitory activity (CellTiter-Glo, 4 days); assay type: cell-based; conditions: NCI-H441 cells, 4 days, read-out: NCl-H441 IC50
Outline: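 Proliferation was scored by […] measured after the reagent was added to cultures kept at 37°C in 5% carbon dioxide.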

Sequence of HRAS wild-type protein (P01112 whole entry): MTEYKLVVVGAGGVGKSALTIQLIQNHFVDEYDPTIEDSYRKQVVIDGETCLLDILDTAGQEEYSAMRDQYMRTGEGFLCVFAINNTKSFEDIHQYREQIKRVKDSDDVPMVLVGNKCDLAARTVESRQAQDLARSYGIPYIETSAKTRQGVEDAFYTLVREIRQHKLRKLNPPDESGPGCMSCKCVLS

SMILES: CCCO[C@H](C)[C@@H]1NC(=O)[C@H](CC(C)C)N(C)C(=O)C[C@@H](C(=O)N(C)CC)N(C)C(=O)[C@H](C2CCCC2)N(C)C(=O)C2(CC(C)(C)C2)NC(=O)[C@@H]2C[C@H](C)CN2C(=O)[C@H](CCc2ccc(C(F)(F)F)c(OC)c2)NC(=O)CN(C)C(=O)[C@H](Cc2ccc(C)cc2)N2CC/C=C\C[C@@H](C2=O)N(C)C(=O)CN(C)C1=O [PP2416]
- HRAS /KRAS (HRAS wild-type protein): B (a compound having 3 or more and less than 10 is denoted as B)
- Kd [1]: 0.29 nM
- NRAS /KRAS [2]: A (a compound having 10 or more and less than 20 is denoted as A)
- IC50 [3]: 33.1 nM

SMILES: CCO[C@H](C)[C@@H]1NC(=O)[C@H](CC(C)C)N(C)C(=O)C[C@@H](C(=O)N(C)C)N(C)C(=O)[C@H](C2CCCC2)N(C)C(=O)C2(CC(C)(C)C2)NC(=O)[C@@H]2C[C@H](C)CN2C(=O)[C@H](CCc2ccc(C(F)(F)F)c(OC)c2)NC(=O)CN(C)C(=O)[C@H](Cc2ccc(C)cc2)N2CC/C=C\C[C@@H](C2=O)N(C)C(=O)[C@@H]2CCCN2C1=O [PP2418]
- HRAS /KRAS (HRAS wild-type protein): B (a compound having 3 or more and less than 10 is denoted as B)
- Kd [1]: 0.97 nM
- NRAS /KRAS [2]: A (a compound having 10 or more and less than 20 is denoted as A)
- IC50 [3]: 132 nM

SMILES: CCCO[C@H](C)[C@@H]1NC(=O)[C@H](COCC)N(C)C(=O)C[C@@H](C(=O)N(C)CC)N(C)C(=O)[C@H](C2CCCC2)N(C)C(=O)C2(CC(C)(C)C2)NC(=O)[C@@H]2C[C@H](C)CN2C(=O)[C@H](CCc2ccc(C(F)(F)F)c(OC)c2)NC(=O)CN(C)C(=O)[C@H](Cc2ccc(C)cc2)N2CC/C=C\C[C@@H](C2=O)N(C)C(=O)CN(C)C1=O [PP2425]
- HRAS /KRAS (HRAS wild-type protein): A (a compound having 10 or more and less than 20 is denoted as A)
- Kd [1]: 0.23 nM
- NRAS /KRAS [2]: AA (a compound having 20 or more is denoted as AA)
- IC50 [3]: 51.7 nM

SMILES: CCCO[C@H](C)[C@@H]1NC(=O)[C@H](COCC)N(C)C(=O)C[C@@H](C(=O)N(C)CC)N(C)C(=O)[C@H](C2CCCC2)N(C)C(=O)C2(CC(C)(C)C2)NC(=O)[C@@H]2C[C@H](C)CN2C(=O)[C@H](CCc2cc(F)c(C(F)(F)F)c(F)c2)NC(=O)CN(C)C(=O)[C@H](Cc2ccc(C)cc2)N2CC/C=C\C[C@@H](C2=O)N(C)C(=O)CN(C)C1=O [PP2426]
- HRAS /KRAS (HRAS wild-type protein): A (a compound having 10 or more and less than 20 is denoted as A)
- Kd [1]: 0.31 nM
- NRAS /KRAS [2]: AA (a compound having 20 or more is denoted as AA)
- IC50 [3]: 48 nM

SMILES: CCOC[C@H]1C(=O)N[C@@H]([C@@H](C)CC)C(=O)N2CCC[C@H]2C(=O)N(C)[C@H]2C/C=C\CCN(C2=O)[C@@H](Cc2ccc(C)cc2)C(=O)N(C)CC(=O)N[C@@H](CCc2ccc(C(F)(F)F)c(OC)c2)C(=O)N2C[C@@H](C)C[C@H]2C(=O)NC2(CC(C)(C)C2)C(=O)N(C)[C@@H](C2CCCC2)C(=O)N(C)[C@H](C(=O)N(C)CC)CC(=O)N1C [PP2427]
- HRAS /KRAS (HRAS wild-type protein): A (a compound having 10 or more and less than 20 is denoted as A)
- Kd [1]: 0.7 nM
- NRAS /KRAS [2]: AA (a compound having 20 or more is denoted as AA)
- IC50 [3]: 36.6 nM

SMILES: CCOC[C@H]1C(=O)N[C@@H]([C@@H](C)CC)C(=O)N2CCC[C@H]2C(=O)N(C)[C@H]2C/C=C\CCN(C2=O)[C@@H](Cc2ccc(C)cc2)C(=O)N(C)CC(=O)N[C@@H](CCc2cc(F)c(C(F)(F)F)c(F)c2)C(=O)N2C[C@H](OCC)C[C@H]2C(=O)NC2(CC(C)(C)C2)C(=O)N(C)[C@@H](C2CCCC2)C(=O)N(C)[C@H](C(=O)N(C)CC)CC(=O)N1C [PP2428]
- HRAS /KRAS (HRAS wild-type protein): A (a compound having 10 or more and less than 20 is denoted as A)
- Kd [1]: 0.62 nM
- NRAS /KRAS [2]: A (a compound having 10 or more and less than 20 is denoted as A)
- IC50 [3]: 4.8 nM

SMILES: CCCOC[C@H]1C(=O)N[C@@H]([C@@H](C)CC)C(=O)N2CCC[C@H]2C(=O)N(C)[C@H]2C/C=C\CCN(C2=O)[C@@H](Cc2ccc(C)cc2)C(=O)N(C)CC(=O)N[C@@H](CCc2cc(F)c(C(F)(F)F)c(F)c2)C(=O)N2C[C@H](C)C[C@H]2C(=O)NC2(CC(C)(C)C2)C(=O)N(C)[C@@H](C2CCCC2)C(=O)N(C)[C@H](C(=O)N(C)CC)CC(=O)N1C [PP2430]
- HRAS /KRAS (HRAS wild-type protein): A (a compound having 10 or more and less than 20 is denoted as A)
- Kd [1]: 1.4 nM
- NRAS /KRAS [2]: AA (a compound having 20 or more is denoted as AA)
- IC50 [3]: 33.2 nM

SMILES: CCCOC[C@H]1C(=O)N[C@@H]([C@@H](C)OCC)C(=O)N2CCC[C@H]2C(=O)N(C)[C@H]2C/C=C\CCN(C2=O)[C@@H](Cc2ccc(C)cc2)C(=O)N(C)CC(=O)N[C@@H](CCc2cc(F)c(C(F)(F)F)c(F)c2)C(=O)N2C[C@H](OCC)C[C@H]2C(=O)NC2(CC(C)(C)C2)C(=O)N(C)[C@@H](C2CCCC2)C(=O)N(C)[C@H](C(=O)N(C)CC)CC(=O)N1C [PP2432]
- HRAS /KRAS (HRAS wild-type protein): A (a compound having 10 or more and less than 20 is denoted as A)
- Kd [1]: 1.4 nM
- NRAS /KRAS [2]: A (a compound having 10 or more and less than 20 is denoted as A)
- IC50 [3]: 138 nM

SMILES: CCCO[C@H](C)[C@@H]1NC(=O)[C@H](COCC)N(C)C(=O)C[C@@H](C(=O)N(C)CC)N(C)C(=O)[C@H](C2CCCC2)N(C)C(=O)C2(CC(C)(C)C2)NC(=O)[C@@H]2C[C@@H](OCC)CN2C(=O)[C@H](CCc2cc(F)c(C(F)(F)F)c(F)c2)NC(=O)CN(C)C(=O)[C@H](Cc2ccc(C)cc2)N2CC/C=C\C[C@@H](C2=O)N(C)C(=O)[C@@H]2CCCN2C1=O [PP2436]
- HRAS /KRAS (HRAS wild-type protein): A (a compound having 10 or more and less than 20 is denoted as A)
- Kd [1]: 1.6 nM
- NRAS /KRAS [2]: A (a compound having 10 or more and less than 20 is denoted as A)
- IC50 [3]: 126 nM

SMILES: CCOC[C@H]1C(=O)N[C@@H]([C@@H](C)CC)C(=O)N(C)CC(=O)N(C)[C@H]2C/C=C\CCN(C2=O)[C@@H](Cc2ccc(C)cc2)C(=O)N(C)CC(=O)N[C@@H](CCc2cc(F)c(C(F)(F)F)c(F)c2)C(=O)N2C[C@@H](C)C[C@H]2C(=O)NC2(CC(C)(C)C2)C(=O)N(C)[C@@H](C2CCCC2)C(=O)N(C)[C@H](C(=O)N(C)C)CC(=O)N1C [PP2439]
- HRAS /KRAS (HRAS wild-type protein): A (a compound having 10 or more and less than 20 is denoted as A)
- Kd [1]: 0.12 nM
- NRAS /KRAS [2]: A (a compound having 10 or more and less than 20 is denoted as A)
- IC50 [3]: 6.6 nM

SMILES: CCO[C@@H]1C[C@H]2C(=O)NC3(CC(C)(C)C3)C(=O)N(C)[C@@H](C(CC)CC)C(=O)N(C)[C@H](C(=O)N(C)C)CC(=O)N(C)[C@@H](COC)C(=O)N[C@@H]([C@@H](C)CC)C(=O)N(C)CC(=O)N(C)[C@H]3C/C=C\CCN(C3=O)[C@@H](CC3CCC(F)(F)CC3)C(=O)N(C)CC(=O)N[C@@H](CCc3cc(F)c(C(F)(F)F)c(F)c3)C(=O)N2C1 [PP2440]
- HRAS /KRAS (HRAS wild-type protein): A (a compound having 10 or more and less than 20 is denoted as A)
- Kd [1]: 0.44 nM
- NRAS /KRAS [2]: A (a compound having 10 or more and less than 20 is denoted as A)
- IC50 [3]: 20.1 nM

SMILES: CCC(CC)[C@H]1C(=O)N(C)[C@H](C(=O)N(C)C)CC(=O)N(C)[C@@H](COC)C(=O)N[C@@H]([C@@H](C)CC)C(=O)N(C)CC(=O)N(C)[C@H]2C/C=C\CCN(C2=O)[C@@H](CC2CCC(F)(F)CC2)C(=O)N(C)CC(=O)N[C@@H](CCc2ccc(C(F)(F)F)c(OC)c2)C(=O)N2C[C@@H](C)C[C@H]2C(=O)NC2(CC(C)(C)C2)C(=O)N1C [PP2442]
- HRAS /KRAS (HRAS wild-type protein): A (a compound having 10 or more and less than 20 is denoted as A)
- Kd [1]: 0.97 nM
- NRAS /KRAS [2]: A (a compound having 10 or more and less than 20 is denoted as A)
- IC50 [3]: 79.7 nM

SMILES: CCO[C@@H]1C[C@H]2C(=O)NC3(CC(C)(C)C3)C(=O)N(C)[C@@H](C(CC)CC)C(=O)N(C)[C@H](C(=O)N(C)C)CC(=O)N(C)[C@@H](COC)C(=O)N[C@@H]([C@@H](C)CC)C(=O)N(C)CC(=O)N(C)[C@H]3C/C=C\CCN(C3=O)[C@@H](CC3CCC(F)(F)CC3)C(=O)N(C)CC(=O)N[C@@H](CCc3ccc(C(F)(F)F)c(Cl)c3)C(=O)N2C1 [PP2444]
- HRAS /KRAS (HRAS wild-type protein): A (a compound having 10 or more and less than 20 is denoted as A)
- Kd [1]: 0.59 nM
- NRAS /KRAS [2]: A (a compound having 10 or more and less than 20 is denoted as A)
- IC50 [3]: 32.3 nM

SMILES: CCOC[C@H]1C(=O)N[C@@H]([C@@H](C)CC)C(=O)N(C)CC(=O)N(C)[C@H]2C/C=C\CCN(C2=O)[C@@H](Cc2ccc(C)cc2)C(=O)N(C)CC(=O)N[C@@H](CCc2ccc(C(F)(F)F)c(OC)c2)C(=O)N2C[C@H](OCC)C[C@H]2C(=O)NC2(CC(C)(C)C2)C(=O)N(C)[C@@H](C2CCCC2)C(=O)N(C)[C@H](C(=O)N(C)CC)CC(=O)N1C [PP2445]
- HRAS /KRAS (HRAS wild-type protein): B (a compound having 3 or more and less than 10 is denoted as B)
- Kd [1]: 0.14 nM
- NRAS /KRAS [2]: A (a compound having 10 or more and less than 20 is denoted as A)
- IC50 [3]: 11.7 nM

SMILES: CCC(CC)[C@H]1C(=O)N(C)[C@H](C(=O)N(C)C)CC(=O)N(C)[C@@H](COC)C(=O)N[C@@H]([C@@H](C)CC)C(=O)N(C)CC(=O)N(C)[C@H]2C/C=C\CCN(C2=O)[C@@H](CC2CCC(F)(F)CC2)C(=O)N(C)CC(=O)N[C@@H](CCc2cc(F)c(C(F)(F)F)c(F)c2)C(=O)N2C[C@@H](C)C[C@H]2C(=O)NC2(CC(C)(C)C2)C(=O)N1C [PP2448]
- HRAS /KRAS (HRAS wild-type protein): A (a compound having 10 or more and less than 20 is denoted as A)
- Kd [1]: 1.4 nM
- NRAS /KRAS [2]: A (a compound having 10 or more and less than 20 is denoted as A)
- IC50 [3]: 26.9 nM
